# Patent US20250041282A1, “METHOD FOR TREATING INFLAMMATORY PULMONARY DISEASE” (FU JEN CATHOLIC UNIVERSITY, priority 2021, published 2025)
# Legend:
# Format in all cases: cell-based, mouse
# RAW264.7 macrophages [1] = test: Morphology of LPS-stimulated macrophages; conditions: LPS 24 hours; FIG. 1C
# Method: To compare the anti-inflammatory effects of the newly synthesized compound FJU-C28 (FIG. 1A) on LPS-activated murine macrophages to those of the parent compound FJU-C4, RAW264.7 macrophages were pretreated with various concentrations of FJU-Cs for 30 min and then stimulated with or without LPS for 24 hours. […] LPS stimulation changed the shape of macrophages, resulting in dendritic-like cells with multiple vacuoles in the cytoplasm, whereas the untreated cells were round and small. […] This effect was consistent with the findings of the cytotoxicity assay. […] In addition, FJU-C28 suppressed the expression of iNOS and COX2 at doses higher than 5 μM (FIG. 1D).
# RAW264.7 macrophages [2] = test: Analysis of cell viability (MTT assay); conditions: FIG. 1B
# Method: RAW264.7 cells (mouse monocyte/macrophage-like cells) were purchased from the Bioresource Collection and Research Center (Hsinchu, Taiwan). The cells were maintained in DMEM (HyClone, Logan, UT, USA) containing 10% fetal bovine serum (HyClone), MEM nonessential amino acids (HyClone), […] sodium pyruvate (HyClone), and penicillin/streptomycin (HyClone). The cells were incubated at 37° C. in a humidified atmosphere of 5% CO2 and 95% air. RAW264.7 macrophages were pretreated with FJU-Cs (0 to 10 μM) as indicated for 30 min and were then stimulated with/without LPS (100 ng/ml) for 24 h. The remaining cells were evaluated by a 3-(4,5-dimethylthiazol-2-yl)-2,5-diphenyl tetrazolium bromide (MTT) assay. Cells containing formazan crystals were dissolved in DMSO (Merck, Darmstadt, Germany) and quantified at a wavelength of 595 nm using a spectrophotometer (BioTek Instruments, Inc. Winooski, Vermont, USA). Each experiment was repeated at least 3 times.
# RAW264.7 macrophages [3] = test: Quantitative real-time PCR of inflammatory mediators and cytokines; conditions: LPS-induced
# Method: RNA was isolated from cells using TRIzol reagent (Invitrogen, Carlsbad, CA, USA) as previously described.^32 The concentration of the isolated RNA was measured using an Epoch microplate spectrophotometer (BioTek, Winooski, VT, USA). One microgram of RNA was reverse-transcribed to cDNA with random primers and an MMLV RT kit (Epicenter Biotechnologies, Madison, WI, USA). The mixture (2 μl) was added to PCR reagents to measure the target mRNA level with specific primers (Table 1). All real-time PCRs were performed in a volume of 20 μl containing 10 μl of Real-time PCR SYBR Green master mix (Toyobo, Osaka, Japan) using a PikoReal 96 Real-Time PCR System (Thermo Fisher Scientific Inc.), according to our previously described method.^33 The expression of β-actin was used as an internal control for RNA quantification.
# RAW264.7 macrophages [4] = test: Cytokine protein array analysis of conditioned culture media
# Method: Cytokine array analysis was performed according to the procedure recommended by the Raybio mouse cytokine antibody array 4 (RayBiotech, Inc. Peachtree Corners, GA). This cytokine protein array was used to simultaneously determine the relative levels of 40 different cytokines, chemokines, and acute-phase proteins in a single sample. One hundred microliters of cell culture medium was used for each sample. The signal intensity in the membrane of the cytokine protein array was measured by using ImageJ software and is presented as a heat map drawn by using MultiExperiment Viewer (MeV V.4.9.0) software.
# To distinguish the effect of various FJU-Cs on LPS-induced inflammation, the cell culture media of RAW264.7 macrophages treated with various conditions were harvested and analyzed by using a mouse cytokine antibody array (left panel of FIG. 3). The signal intensities on the array membranes were quantified by densitometry, and the changes in different cytokines are represented as a heat map (right panel of FIG. 3).
# [5] = concentration less than 10 μM, FIG. 2
smiles,measurement,setting,value
C=CCC1CC(Sc2ccccc2)=CC(=O)N1C(=O)C=C (centres unmarked) [FJU-C28],LPS-induced changes in macrophage morphology,RAW264.7 macrophages [1],dramatically inhibited these changes in morphology in a concentration-dependent manner
same,cytotoxicity,"RAW264.7 macrophages [2]; compared with 10 μM FJU-C4, 24 hours",less cytotoxicity than 10 μM FJU-C4
same,LPS-induced cell death,"RAW264.7 macrophages [2]; pretreated 30 min, then LPS 24 hours",protected RAW264.7 macrophages from LPS-induced cell death
same,mRNA level of COX2,RAW264.7 macrophages [3]; FIG. 2,downregulated in a concentration-dependent manner
same,mRNA level of iNOS,RAW264.7 macrophages [3]; FIG. 2,downregulated in a concentration-dependent manner
same,mRNA level of IL-1β,RAW264.7 macrophages [3]; [5],concentration-dependently decreased
same,mRNA level of IL-6,RAW264.7 macrophages [3]; [5],concentration-dependently decreased
same,gene expression of IL-6,RAW264.7 macrophages [3]; dose higher than 5 μM,noticeably inhibited
same,gene expression of iNOS,RAW264.7 macrophages [3]; dose higher than 5 μM,noticeably inhibited
same,"LPS-induced secretion of TIMP1, IL-6 and IL-10 (array, in words)",RAW264.7 macrophages [4]; FIG. 3,dramatically suppressed
same,"LPS-induced secretion/expression of RANTES (array, in words)",RAW264.7 macrophages [4]; FIG. 3,dramatically suppressed
same,"Protein array, fold change (mean ± S.E.): BLC",RAW264.7 macrophages [4]; LPS + compound / control,1.3 ± 0.1 fold change
same,"Protein array, fold change (mean ± S.E.): CD30 L",RAW264.7 macrophages [4]; LPS + compound / control,1.6 ± 0.9 fold change
same,"Protein array, fold change (mean ± S.E.): Eotaxin",RAW264.7 macrophages [4]; LPS + compound / control,10.3 ± 6.1 fold change
same,"Protein array, fold change (mean ± S.E.): Eotaxin-2",RAW264.7 macrophages [4]; LPS + compound / control,2.0 ± 1.0 fold change
same,"Protein array, fold change (mean ± S.E.): Fas ligand",RAW264.7 macrophages [4]; LPS + compound / control,1.1 ± 0.8 fold change
same,"Protein array, fold change (mean ± S.E.): Fractalkine",RAW264.7 macrophages [4]; LPS + compound / control,1.0 ± 0.6 fold change
same,"Protein array, fold change (mean ± S.E.): GCSF",RAW264.7 macrophages [4]; LPS + compound / control,20.1 ± 1.9 fold change
same,"Protein array, fold change (mean ± S.E.): GM-CSF",RAW264.7 macrophages [4]; LPS + compound / control,1.5 ± 0.4 fold change
same,"Protein array, fold change (mean ± S.E.): I-TAC",RAW264.7 macrophages [4]; LPS + compound / control,0.8 ± 0.3 fold change
same,"Protein array, fold change (mean ± S.E.): IL-1B",RAW264.7 macrophages [4]; LPS + compound / control,2.6 ± 0.0 fold change
same,"Protein array, fold change (mean ± S.E.): IL-1α",RAW264.7 macrophages [4]; LPS + compound / control,1.1 ± 0.1 fold change
same,"Protein array, fold change (mean ± S.E.): IL-2",RAW264.7 macrophages [4]; LPS + compound / control,2.1 ± 0.2 fold change
same,"Protein array, fold change (mean ± S.E.): IL-3",RAW264.7 macrophages [4]; LPS + compound / control,1.1 ± 0.2 fold change
same,"Protein array, fold change (mean ± S.E.): IL-4",RAW264.7 macrophages [4]; LPS + compound / control,1.2 ± 0.2 fold change
same,"Protein array, fold change (mean ± S.E.): IL-6",RAW264.7 macrophages [4]; LPS + compound / control,1.1 ± 0.2 fold change
same,"Protein array, fold change (mean ± S.E.): IL-9",RAW264.7 macrophages [4]; LPS + compound / control,0.9 ± 0.3 fold change
same,"Protein array, fold change (mean ± S.E.): IL-10",RAW264.7 macrophages [4]; LPS + compound / control,0.3 ± 0.2 fold change
same,"Protein array, fold change (mean ± S.E.): IL-12 p70",RAW264.7 macrophages [4]; LPS + compound / control,0.8 ± 0.2 fold change
same,"Protein array, fold change (mean ± S.E.): IL-12 p-40 p70",RAW264.7 macrophages [4]; LPS + compound / control,0.9 ± 0.1 fold change
same,"Protein array, fold change (mean ± S.E.): IL-13",RAW264.7 macrophages [4]; LPS + compound / control,0.6 ± 0.0 fold change
same,"Protein array, fold change (mean ± S.E.): IL-17",RAW264.7 macrophages [4]; LPS + compound / control,7.8 ± 5.3 fold change
same,"Protein array, fold change (mean ± S.E.): INF gamma",RAW264.7 macrophages [4]; LPS + compound / control,1.4 ± 0.2 fold change
same,"Protein array, fold change (mean ± S.E.): KC",RAW264.7 macrophages [4]; LPS + compound / control,0.8 ± 0.4 fold change
same,"Protein array, fold change (mean ± S.E.): LIX",RAW264.7 macrophages [4]; LPS + compound / control,1.0 ± 0.2 fold change
same,"Protein array, fold change (mean ± S.E.): Leptin",RAW264.7 macrophages [4]; LPS + compound / control,3.2 ± 0.8 fold change
same,"Protein array, fold change (mean ± S.E.): Lymphotactin",RAW264.7 macrophages [4]; LPS + compound / control,0.7 ± 0.2 fold change
same,"Protein array, fold change (mean ± S.E.): MCP-1",RAW264.7 macrophages [4]; LPS + compound / control,1.7 ± 0.2 fold change
same,"Protein array, fold change (mean ± S.E.): MCSF",RAW264.7 macrophages [4]; LPS + compound / control,0.8 ± 0.1 fold change
same,"Protein array, fold change (mean ± S.E.): MIP-1α",RAW264.7 macrophages [4]; LPS + compound / control,1.0 ± 0.2 fold change
same,"Protein array, fold change (mean ± S.E.): MIP-1γ",RAW264.7 macrophages [4]; LPS + compound / control,1.2 ± 0.2 fold change
same,"Protein array, fold change (mean ± S.E.): RANTES",RAW264.7 macrophages [4]; LPS + compound / control,1.3 ± 0.2 fold change
same,"Protein array, fold change (mean ± S.E.): SDF1",RAW264.7 macrophages [4]; LPS + compound / control,0.9 ± 0.2 fold change
same,"Protein array, fold change (mean ± S.E.): STNFRI",RAW264.7 macrophages [4]; LPS + compound / control,1.0 ± 0.0 fold change
same,"Protein array, fold change (mean ± S.E.): STNFRII",RAW264.7 macrophages [4]; LPS + compound / control,2.1 ± 0.1 fold change
same,"Protein array, fold change (mean ± S.E.): TCA-3",RAW264.7 macrophages [4]; LPS + compound / control,0.9 ± 0.1 fold change
same,"Protein array, fold change (mean ± S.E.): TECK",RAW264.7 macrophages [4]; LPS + compound / control,0.5 ± 0.3 fold change
same,"Protein array, fold change (mean ± S.E.): TIMP-1",RAW264.7 macrophages [4]; LPS + compound / control,1.1 ± 0.1 fold change
same,"Protein array, fold change (mean ± S.E.): TIMP-2",RAW264.7 macrophages [4]; LPS + compound / control,0.0 ± 0.0 fold change
same,"Protein array, fold change (mean ± S.E.): TNFα",RAW264.7 macrophages [4]; LPS + compound / control,21.0 ± 0.8 fold change
